Assay [1] concerns A375. Kind of assay: 48 h Cytotoxicity A375. As to conditions: Homo sapiens, A-375. The class given is cell-based.
Assay [2] addresses EmCV Cap-dependent translation. The experiment in a line: In vitro translation assay, FF-EmCV-Ren construct, cap-dependent (FF luciferase). The class given is biochemical, rabbit reticulocyte lysates. The procedure, abridged:
(§1)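 Rabbit reticulocyte lysate with -Met/-Leu translation mixes (1:1) was pre-incubated with compounds 1 h at room temperature, then programmed with 0.1 μg bicistronic RNA per well and translated 2 h at 30° C. FF luciferase (cap-dependent) and then Ren luciferase (IRES-driven) were read by Dual-Glo luminescence.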

Assay [3] addresses HCV cap-independent translation. Kind of assay: In vitro translation assay, FF-HCV-Ren construct, cap-independent (Ren luciferase). The class given is biochemical, rabbit reticulocyte lysates. The method in brief:
as §1

For assay [4], the target named is HCV cap-dependent translation. Kind of assay: In vitro translation assay, FF-HCV-Ren construct, cap-dependent (FF luciferase). The class given is biochemical, rabbit reticulocyte lysates. The method in brief:
as §1

Assay [5] addresses EmCV Cap-independent translation. The experiment in a line: In vitro translation assay, FF-EmCV-Ren construct, cap-independent (Ren luciferase). The class given is biochemical, rabbit reticulocyte lysates. The procedure, abridged:
as §1

For `Cc1ccnc(C#CC(=O)c2c(-c3ccccc3)c3cc(Cl)ccc3[nH]c2=O)c1` [Compound 112, 6-Chloro-3-[3-(4-methyl-pyridin-2-yl)-propynoyl]-4-phenyl-1H-quinolin-2-one], the IC50 (as a rule, the concentration needed to halve the response being measured) was more than 20000 nM in assay [1]; more than 20 µM in assay [2]; more than 20 µM in assay [3]; more than 20 µM in assay [4]; more than 20 µM in assay [5].
As to `O=C(/C=C/c1cccnc1)c1c(-c2ccccc2)c2cc(Cl)ccc2[nH]c1=O` [Compound 32, 6-Chloro-4-phenyl-3-(3-pyridin-3-yl-acryloyl)-1H-quinolin-2-one], the IC50 was less than 2000 nM in assay [1]; 2 to 10 µM in assay [2]; 2 to 10 µM in assay [3]; 2 to 10 µM in assay [4]; 2 to 10 µM in assay [5].
`O=C(/C=C/c1nc2ccccc2[nH]1)c1c(-c2ccccc2)c2ccncc2[nH]c1=O` [Compound 22, 3-(3-1H-Benzoimidazol-2-yl-acryloyl)-4-phenyl-1H-[1,7]naphthyridin-2-one]: the IC50 in assay [1] was more than 20000 nM; in assay [2], 10 to 20 µM; in assay [3] it was 10 to 20 µM; in assay [4], 10 to 20 µM; in assay [5] it was 10 to 20 µM.
In the case of `COc1ccc(-c2c(C(=O)/C=C/c3ccccn3)c(=O)[nH]c3ccc(Cl)cc23)cc1` [Compound 80, 3-((2E)-3-(2-pyridyl)prop-2-enoyl)-6-chloro-4-(4-methoxyphenyl)hydroquinolin-2-one], the 50% inhibitory concentration (IC50) fell in the range of 2000 to 10000 nM in assay [1]; 2 to 10 µM in assay [2]; 2 to 10 µM in assay [3]; 10 to 20 µM in assay [4]; 2 to 10 µM in assay [5].
Consider `Nc1ccc2[nH]c(=O)c(C(=O)CCc3nc4ccccc4[nH]3)c(-c3ccccc3)c2c1` [Compound 14, 6-Amino-3-(3-1H-benzoimidazol-2-yl-propionyl)-4-phenyl-1H-quinolin-2-one], for which the IC50 in assay [1] is more than 20000 nM; in assay [2] it was more than 20 µM; in assay [3], more than 20 µM; in assay [4] it was more than 20 µM; in assay [5], more than 20 µM.
For `O=C(/C(Br)=C\c1cncc(F)c1)c1c(-c2ccccc2)c2cc(Cl)ccc2[nH]c1=O` [Compound 111, 3-[(2E)-2-bromo-3-(5-fluoro(3-pyridyl))prop-2-enoyl]-6-chloro-4-phenylhydroquinolin-2-one], the IC50 in assay [1] was in the range of 2000 to 10000 nM; in assay [2], 2 to 10 µM; in assay [3], 2 to 10 µM; in assay [4], 2 to 10 µM; in assay [5], 2 to 10 µM.
For the compound `O=C(/C=C/c1nc2ccccc2[nH]1)c1c(-c2ccc(Cl)cc2)c2cc(Cl)ccc2[nH]c1=O` [Compound 5, 3-(3-1H-Benzoimidazol-2-yl-acryloyl)-6-chloro-4-(4-chloro-phenyl)-1H-quinolin-2-one], the IC50 was less than 2000 nM in assay [1]; 2 to 10 µM in assay [2]; 10 to 20 µM in assay [3]; 10 to 20 µM in assay [4]; 10 to 20 µM in assay [5].
As to `O=C(/C=C/c1ccc(F)c(F)c1)c1c(-c2ccccc2)c2cc(Cl)ccc2[nH]c1=O` [Compound 40, 6-Chloro-3-[3-(3,4-difluoro-phenyl)-acryloyl]-4-phenyl-1H-quinolin-2-one], the 50% inhibitory concentration (IC50) is less than 2000 nM in assay [1]; 2 to 10 µM in assay [2]; 2 to 10 µM in assay [3]; 2 to 10 µM in assay [4]; 2 to 10 µM in assay [5].
`CN(C)c1ccc(/C=C/C(=O)c2c(-c3ccccc3)c3cc(Cl)ccc3[nH]c2=O)cc1` [Compound 35, 6-Chloro-3-[3-(4-dimethylamino-phenyl)-acryloyl]-4-phenyl-1H-quinolin-2-one]: the 50% inhibitory concentration (IC50) in assay [1] is more than 20000 nM; in assay [2], more than 20 µM; in assay [3], more than 20 µM; in assay [4] it was more than 20 µM; in assay [5], more than 20 µM.
On to `COc1ccc(/C=C/C(=O)c2c(-c3ccccc3)c3cc(Cl)ccc3[nH]c2=O)c(F)c1` [Compound 43, 6-Chloro-3-[3-(2-fluoro-4-methoxy-phenyl)-acryloyl]-4-phenyl-1H-quinolin-2-one], for which the IC50 is less than 2000 nM in assay [1]; more than 20 µM in assay [2]; 2 to 10 µM in assay [3]; 2 to 10 µM in assay [4]; more than 20 µM in assay [5].
As for `Nc1ccc2[nH]c(=O)c(C(=O)/C=C/c3nc4ccccc4[nH]3)c(-c3ccccc3)c2c1` [Compound 15, 6-Amino-3-(3-1H-benzoimidazol-2-yl-acryloyl)-4-phenyl-1H-quinolin-2-one], the 50% inhibitory concentration (IC50) was more than 20000 nM in assay [1]; 10 to 20 µM in assay [2]; more than 20 µM in assay [3]; 10 to 20 µM in assay [4]; 10 to 20 µM in assay [5].
Regarding `Cn1c(/C=C/C(=O)c2c(-c3ccccc3)c3cc(Cl)ccc3[nH]c2=O)cc2ccccc21` [Compound 29, 6-Chloro-3-[3-(1-methyl-1H-indol-2-yl)-acryloyl]-4-phenyl-1H-quinolin-2-one], the IC50 is less than 2000 nM in assay [1]; more than 20 µM in assay [2]; more than 20 µM in assay [3]; 10 to 20 µM in assay [4]; more than 20 µM in assay [5].
For `O=C(/C=C/c1nc2ccccc2[nH]1)c1c(-c2ccccc2)c2cnccc2[nH]c1=O` [Compound 24, 3-(3-1H-Benzoimidazol-2-yl-acryloyl)-4-phenyl-1H-[1,6]naphthyridin-2-one], the IC50 in assay [1] is less than 2000 nM; in assay [2], 2 to 10 µM; in assay [3], 10 to 20 µM; in assay [4], 10 to 20 µM; in assay [5] it was 2 to 10 µM.
Regarding `COc1ccc(-c2c(C(=O)/C=C/c3nc4ccccc4[nH]3)c(=O)[nH]c3ccc(Cl)cc23)cc1` [Compound 3, 3-(3-1H-Benzoimidazol-2-yl-acryloyl)-6-chloro-4-(4-methoxy-phenyl)-1H-quinolin-2-one], the IC50 in assay [1] was less than 2000 nM; in assay [2], 10 to 20 µM; in assay [3] it was more than 20 µM; in assay [4], 10 to 20 µM; in assay [5] it was more than 20 µM.
On to `O=C(/C=C/c1nc2ccccc2[nH]1)c1c(-c2ccc(C(F)(F)F)cc2)c2cc(Cl)ccc2[nH]c1=O` [Compound 1, 3-(3-1H-Benzoimidazol-2-yl-acryloyl)-6-chloro-4-(4-trifluoromethyl-phenyl)-1H-quinolin-2-one], for which the 50% inhibitory concentration (IC50) in assay [1] was in the range of 2000 to 10000 nM; in assay [2], 2 to 10 µM; in assay [3], 2 to 10 µM; in assay [4] it was 2 to 10 µM; in assay [5], 2 to 10 µM.
Regarding `O=C(/C=C/c1nc2ccccc2n1Cc1ccccc1)c1c(-c2ccccc2)c2cc(Cl)ccc2n(Cc2ccccc2)c1=O` [Compound 56, 1-benzyl-3-[3-(1-benzyl-1H-benzoimidazol-2-yl)-acryloyl]-6-chloro-4-phenyl-1H-quinolin-2-one], the IC50 in assay [1] is 2000 to 10000 nM; in assay [2], 2 to 10 µM; in assay [3], 2 to 10 µM; in assay [4], 10 to 20 µM; in assay [5], more than 20 µM.
`O=C(/C=C/c1cc(Cl)ccn1)c1c(-c2ccccc2)c2cc(Cl)ccc2[nH]c1=O` [Compound 71, 3-[(2E)-3-(4-chloro(2-pyridyl))prop-2-enoyl]-6-chloro-4-phenylhydroquinolin-2-one]: the 50% inhibitory concentration (IC50) in assay [1] was 2000 to 10000 nM; in assay [2] it was more than 20 µM; in assay [3], more than 20 µM; in assay [4], 10 to 20 µM; in assay [5] it was more than 20 µM.
Regarding `N#Cc1ccc(-c2c(C(=O)/C=C/c3ccccn3)c(=O)[nH]c3ccc(Cl)cc23)cc1` [Compound 90, 4-[3-((2E)-3-(2-pyridyl)prop-2-enoyl)-6-chloro-2-oxo-4-hydroquinolyl]benzenecarbonitrile], the half-maximal inhibitory concentration (IC50) in assay [1] is less than 2000 nM; in assay [2], 2 to 10 µM; in assay [3], 2 to 10 µM; in assay [4], 10 to 20 µM; in assay [5] it was 2 to 10 µM.
`Cc1cncc(/C=C/C(=O)c2c(-c3ccccc3)c3cc(Cl)ccc3[nH]c2=O)c1` [Compound 74, 3-[(2E)-3-(5-methyl(3-pyridyl))prop-2-enoyl]-6-chloro-4-phenylhydroquinolin-2-one]: the IC50 is less than 2000 nM in assay [1]; 2 to 10 µM in assay [2]; 2 to 10 µM in assay [3]; 2 to 10 µM in assay [4]; 2 to 10 µM in assay [5].
Turning to `O=C(/C=C/c1cncc(F)c1)c1c(-c2ccc(OC(F)(F)F)cc2)c2cc(Cl)ccc2[nH]c1=O` [Compound 87, 3-[(2E)-3-(5-fluoro(3-pyridyl))prop-2-enoyl]-6-chloro-4-[4-(trifluoromethoxy)phenyl]hydroquinolin-2-one], the half-inhibitory concentration (IC50) in assay [1] was in the range of 2000 to 10000 nM; in assay [2], 2 to 10 µM; in assay [3], 2 to 10 µM; in assay [4] it was 2 to 10 µM; in assay [5] it was 2 to 10 µM.
As for `Cn1ccc2cc(/C=C/C(=O)c3c(-c4ccccc4)c4cc(Cl)ccc4[nH]c3=O)ccc21` [Compound 30, 6-Chloro-3-[3-(1-methyl-1H-indol-5-yl)-acryloyl]-4-phenyl-1H-quinolin-2-one], the IC50 was 2000 to 10000 nM in assay [1]; more than 20 µM in assay [2]; more than 20 µM in assay [3]; more than 20 µM in assay [4]; more than 20 µM in assay [5].
`Cc1ccc(/C=C/C(=O)c2c(-c3ccccc3)c3cc(Cl)ccc3[nH]c2=O)cc1` [Compound 34, 6-Chloro-4-phenyl-3-(3-p-tolyl-acryloyl)-1H-quinolin-2-one]: the IC50 in assay [1] lay within 2000 to 10000 nM; in assay [2] it was 10 to 20 µM; in assay [3], 2 to 10 µM; in assay [4], 2 to 10 µM; in assay [5], 2 to 10 µM.
For the compound `O=C(/C=C/c1ccc(C(F)(F)F)cc1)c1c(-c2ccccc2)c2cc(Cl)ccc2[nH]c1=O` [Compound 39, 6-Chloro-4-phenyl-3-[3-(4-trifluoromethyl-phenyl)-acryloyl]-1H-quinolin-2-one], the half-inhibitory concentration (IC50) in assay [1] lay within 2000 to 10000 nM; in assay [2], 2 to 10 µM; in assay [3], 10 to 20 µM; in assay [4] it was 10 to 20 µM; in assay [5] it was 2 to 10 µM.

(Values after patent US10577349B2 (Sanford Burnham Prebys Medical Discovery Institute, priority 2015, dated 2020).)
